Results published in ChEMBL document CHEMBL6178013, “Ferroptosis of Cancer Cells via Tubulin Degradation and Mitochondrial Dysfunction: A Novel Mechanism of Anticancer Effect for Small-Molecule Anion Transporters” (J Med Chem, 2025).
Active and inactive are the calls of the source. No cut-off for these calls is given here.

Experiments:
[1] = Half life in male CD-1 mouse at 1 mg/kg, iv measured for 0.083 to 48 hrs by HPLC/MS/MS analysis; format: ADME, organism-based; conditions: in vivo, time 0.083-48 hrs
[2] = test system: HeLa; test: Cytotoxicity against human HeLa cells assessed as decrease in cell viability at 0.01 to 10 uM pretreated with 3-MA followed by compound addition by MTT assay; format: functional, cell-based; conditions: dose 0.01-10 µM
[3] = Oral bioavailability in male CD-1 mouse at 1 mg/kg measured for 0.083 to 48 hrs by HPLC/MS/MS analysis; format: ADME, organism-based; conditions: in vivo, time 0.083-48 hrs
[4] = test system: Chloride; test: Binding affinity to chloride anions assessed as transport of chloride anions across bulky nitrobenzene membrane in U-shaped tube harboring NaCl in donor phase and NaNO3 in receiving phase at 1 mM measured for 12 hrs by chloride ion selective electrode technique
[5] = test system: HeLa; test: Induction of mitochondrial membrane permeability in human HeLa cells assessed as green fluorescence at 0.1 uM incubated for 24 hrs by JC-1 staining based analysis (reference value: 1.5 %); format: functional
[6] = test system: HeLa; test: Induction of mitochondrial membrane permeability in human HeLa cells assessed as red fluorescence at 1 uM incubated for 24 hrs by JC-1 staining based analysis (reference value: 98.5 %); format: functional
[7] = test system: MCF7; test: Cytotoxicity against human MCF7 cells incubated for 48 hrs by MTT assay; format: functional, cell-based; conditions: MCF7, 48 h
[8] = MRT (0 to t) in male CD-1 mouse at 1 mg/kg, iv measured for 0.083 to 48 hrs by HPLC/MS/MS analysis; format: ADME, organism-based; conditions: in vivo, time 0.083-48 hrs
[9] = test system: HeLa; test: Cytotoxicity against human HeLa cells assessed as decrease in cell viability at 0.01 to 10 uM pretreated with Z-VAD-FMK followed by compound addition by MTT assay; format: functional, cell-based; conditions: dose 0.01-10 µM
[10] = MRT (0 to infinity) in male CD-1 mouse at 1 mg/kg, ip measured for 0.083 to 48 hrs by HPLC/MS/MS analysis; format: ADME, organism-based; conditions: in vivo, time 0.083-48 hrs
[11] = test system: HeLa; test: Induction of lipid peroxidation in human HeLa cells assessed as increase in ROS generation incubated for 24 hrs by DCFH-DA probe based fluorescence microscopy; format: functional, cell-based; conditions: dose 0.1-1 µM
[12] = test system: Chloride; test: Binding affinity to chloride anions assessed as chloride efflux in egg-yolk L-alpha-phosphatidylcholine liposome model harboring intravesicular NaCl/extravesicular NaNO3
[13] = test system: Chloride; test: Binding affinity to chloride anions in human HeLa cells assessed as decrease in orange fluorescence in cytoplasm at 5 uM incubated for 6 hrs by AO staining based analysis relative to control; format: cell-based; set-up: scale not given: the % may be the effect or the level left
[14] = test system: Chloride; test: Binding affinity to chloride anions assessed as chloride efflux in egg-yolk L-alpha-phosphatidylcholine liposome model harboring intravesicular NaCl/extravesicular NaHCO3
[15] = molecular target: Tubulin beta (Homo sapiens) (UniProt P68371+Q9H4B7+Q13509+P04350+Q3ZCM7+P07437+Q13885+Q9BVA1+Q9BUF5+A6NNZ2); test: Induction of beta-tubulin degradation in human HeLa cells incubated for 48 hrs by immunoblotting analysis; format: cell-based; conditions: dose 0.1-1 µM
[16] = AUC (0 to t) in male CD-1 mouse at 1 mg/kg, iv measured for 0.083 to 48 hrs by HPLC/MS/MS analysis; format: ADME, organism-based; conditions: in vivo, time 0.083-48 hrs
[17] = test system: HeLa; test: Antitumor activity against human HeLa cells xenografted in male Balb/C nude mouse assessed as cell death at 10 to 20 mg/kg, ip administered on every 2 days measured after 18 days by TUNEL immunofluorescence analysis; format: functional, organism-based; conditions: dose 10-20 mg/kg, time 18.0 day
[18] = molecular target: Tubulin (Homo sapiens) (UniProt P68371+Q9H4B7+P0DPH7+P68366+Q13509+Q71U36+P04350+Q3ZCM7+P07437+P68363+Q9BQE3+Q6PEY2+Q13885+Q9BVA1+Q9BUF5); test: Induction of tubulin degradation in human HeLa cells assessed as disruption of tubulin network at 10 uM incubated for 16 hrs by immunofluorescence based analysis; format: cell-based
[19] = test system: HeLa; test: Antitumor activity against human HeLa cells xenografted in male Balb/C nude mouse assessed as average tumor size at 20 mg/kg, ip administered on every 2 days measured after 18 days (reference value: 1995.1 mm3); format: functional; conditions: time 18 day
[20] = Toxicity in male Balb/C nude mouse xenografted with human HeLa cells assessed as abnormalities in liver at 10 to 20 mg/kg, ip administered on every 2 days measured after 18 days by H and E staining based analysis; format: organism-based; conditions: in vivo, 432 h, dose 10-20 mg/kg, time 18 day
[21] = test system: HeLa; test: Antitumor activity against human HeLa cells xenografted in male Balb/C nude mouse assessed as decrease in beta III-tubulin level at 10 to 20 mg/kg, ip administered on every 2 days measured after 18 days by immunoblotting analysis; format: functional, organism-based; conditions: dose 10-20 mg/kg, time 18.0 day
[22] = test system: Chloride; test: Binding affinity to chloride anions in human HeLa cells assessed as increase in green fluorescence in cytoplasm at 5 uM incubated for 6 hrs by AO staining based analysis; format: cell-based
[23] = test system: HeLa; test: Cytotoxicity against human HeLa cells assessed as decrease in cell viability cultured in chloride-containing extracellular medium at 0.05 to 5 uM incubated for 12 hrs; format: functional, cell-based; conditions: dose 0.05-5 µM
[24] = test system: Chloride; test: Binding affinity to chloride anions using tetrabutylammonium chloride salt assessed as association constant by 1H NMR spectroscopy
[25] = test system: HeLa; test: Induction of mitochondrial membrane permeability in human HeLa cells assessed as red fluorescence at 0.1 uM incubated for 24 hrs by JC-1 staining based analysis (reference value: 98.5 %); format: functional
[26] = Toxicity in male Balb/C nude mouse xenografted with human HeLa cells assessed as abnormalities in heart at 10 to 20 mg/kg, ip administered on every 2 days measured after 18 days by H and E staining based analysis; format: organism-based; conditions: in vivo, 432 h, dose 10-20 mg/kg, time 18 day
[27] = test system: HeLa; test: Induction of mitochondrial membrane permeability in human HeLa cells at 0.625 to 5 uM incubated for 24 hrs by JC-1 staining based analysis; format: functional, cell-based; conditions: dose 0.625-5 µM
[28] = test system: Chloride; test: Binding affinity to chloride anions in human HeLa cells assessed as increase in chloride influx at 1 uM measured after 30 to 60 mins by inverted fluorescence microscopy; format: cell-based; conditions: time 30-60 min
[29] = molecular target: Chloride; test: Binding affinity to chloride anions assessed as chloride efflux in egg-yolk L-alpha-phosphatidylcholine liposome model measured per lipid in presence of intravesicular NaCl/extravesicular NaNO3 by chloride ion selective electrode technique
[30] = Cmax in male CD-1 mouse at 1 mg/kg, ip measured for 0.083 to 48 hrs by HPLC/MS/MS analysis; format: ADME, organism-based; conditions: in vivo, time 0.083-48 hrs
[31] = test system: HeLa; test: Cytotoxicity against human HeLa cells incubated for 48 hrs by MTT assay; format: functional, cell-based
[32] = Toxicity in male Balb/C nude mouse xenografted with human HeLa cells assessed as abnormalities in kidney at 10 to 20 mg/kg, ip administered on every 2 days measured after 18 days by H and E staining based analysis; format: organism-based; conditions: in vivo, 432 h, dose 10-20 mg/kg, time 18 day
[33] = test system: HepG2; test: Cytotoxicity against human HepG2 cells incubated for 48 hrs by MTT assay; format: functional, cell-based; conditions: HepG2, 48 h
[34] = test system: Chloride; test: Binding affinity to chloride anions in human HeLa cells assessed as decrease in red fluorescence in cytoplasm at 5 uM incubated for 1.5 hrs by MR-(RR)2 staining based analysis; format: cell-based

With `Fc1cc(-c2nc3c(C(F)(F)F)cc(C(F)(F)F)cc3[nH]2)cc(-c2nc3c(C(F)(F)F)cc(C(F)(F)F)cc3[nH]2)c1` as the compound, how does the half-life [1] read?
Its half-life is 5.11 h.

And the Activity [2]?
The Activity was “Active”.

And the bioavailability [3]?
The bioavailability was 22%.

And the Activity [4]?
Its Activity is “Active”.

What about the Activity [5] of the same compound?
The Activity was 9.5%.

What about the Activity [6] of the same compound?
The Activity was 33.2%.

And the IC50 [7]?
The IC50 was 0.77 µM.

What about the MRT last [8] of the same compound?
The MRT last was 2.64 h.

And the Activity [9]?
The Activity was “Not active; Z-Vad-Fmk Exhibited Partial Protection For Cells”.

And the MRT inf [10]?
The MRT inf was 14.8 h.

And the Activity [11]?
The Activity was “Dose-dependent-effect”.

And the Activity [12]?
Its Activity is “Active”.

What about the Activity [13] of the same compound?
Its Activity is 100%.

What about the Activity [14] of the same compound?
The Activity was “Active”.

What about the Activity [15] of the same compound?
The Activity was “Dose-dependent-effect”.

And the AUC(0-t) [16]?
Its AUC(0-t) is 17.5 µg·h/mL.

And the Activity [17]?
Its Activity is “Active”.

What about the Activity [18] of the same compound?
Its Activity is “Active”.

What about the Activity [19] of the same compound?
Its Activity is 626.1 mm3.

What about the Activity [20] of the same compound?
Its Activity is “Non-toxic”.

And the Activity [21]?
Its Activity is “Active”.

And the Activity [22]?
The Activity was “Active; The Result Indicates That Compound Basify Acidic Organelles”.

And the Activity [23]?
Its Activity is “Active”.

And the Ka [24]?
The Ka was 1.48 10^3/M.

What about the Activity [25] of the same compound?
Its Activity is 90.5%.

What about the Activity [26] of the same compound?
Its Activity is “Non-toxic”.

And the Activity [27]?
The Activity was “Active”.

And the Activity [28]?
Its Activity is “Active”.

And the EC50 [29]?
Its EC50 is 0.64 mol%.

What about the Cmax [30] of the same compound?
The Cmax was 0.27 µg/mL.

What about the IC50 [31] of the same compound?
Its IC50 is 0.12 µM.

What about the Activity [32] of the same compound?
The Activity was “Non-toxic”.

What about the IC50 [33] of the same compound?
Its IC50 is 2.47 µM.

And the Activity [34]?
The Activity was “Active; The Result Reveals That Compound Can Alkalize Lysosomes”.
